# Experimental data taken from BindingDB's records for doi:10.1111/j.1747-0285.2007.00594.x (Pfizer, 2007).
# Key:
# Assay in all cases: Enzymatic Activity Assay
# Details in all cases: pH 7.5; 22 °C
# [1] = target: Serine/threonine-protein kinase PLK3 (Homo sapiens, UniProt Q9H4B4)
# [2] = target: Serine/threonine-protein kinase PLK1 (Homo sapiens, UniProt P53350)
# [3] = target: Serine/threonine-protein kinase PLK2 (Homo sapiens, UniProt Q9NYY3)
# Chain of Serine/threonine-protein kinase PLK2 (Q9NYY3 whole entry): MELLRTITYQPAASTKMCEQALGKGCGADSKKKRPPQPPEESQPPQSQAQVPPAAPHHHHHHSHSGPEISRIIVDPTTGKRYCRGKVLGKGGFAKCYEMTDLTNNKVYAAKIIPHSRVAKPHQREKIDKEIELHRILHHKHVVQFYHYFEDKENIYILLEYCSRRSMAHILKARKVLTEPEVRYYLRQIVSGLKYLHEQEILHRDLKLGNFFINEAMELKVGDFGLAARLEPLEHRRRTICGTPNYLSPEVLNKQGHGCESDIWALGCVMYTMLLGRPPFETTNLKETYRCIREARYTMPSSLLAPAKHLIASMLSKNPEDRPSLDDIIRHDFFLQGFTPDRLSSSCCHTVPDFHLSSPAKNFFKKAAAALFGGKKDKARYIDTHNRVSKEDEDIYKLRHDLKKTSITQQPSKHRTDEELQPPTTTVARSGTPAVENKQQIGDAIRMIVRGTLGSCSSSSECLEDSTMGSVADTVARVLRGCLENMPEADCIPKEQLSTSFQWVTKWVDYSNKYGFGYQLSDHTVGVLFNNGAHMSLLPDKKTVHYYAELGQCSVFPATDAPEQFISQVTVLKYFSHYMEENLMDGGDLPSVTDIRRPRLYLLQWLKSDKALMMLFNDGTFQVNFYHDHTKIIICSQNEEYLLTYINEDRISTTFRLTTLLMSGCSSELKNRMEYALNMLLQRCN
# Chain of Serine/threonine-protein kinase PLK3 (Q9H4B4 whole entry): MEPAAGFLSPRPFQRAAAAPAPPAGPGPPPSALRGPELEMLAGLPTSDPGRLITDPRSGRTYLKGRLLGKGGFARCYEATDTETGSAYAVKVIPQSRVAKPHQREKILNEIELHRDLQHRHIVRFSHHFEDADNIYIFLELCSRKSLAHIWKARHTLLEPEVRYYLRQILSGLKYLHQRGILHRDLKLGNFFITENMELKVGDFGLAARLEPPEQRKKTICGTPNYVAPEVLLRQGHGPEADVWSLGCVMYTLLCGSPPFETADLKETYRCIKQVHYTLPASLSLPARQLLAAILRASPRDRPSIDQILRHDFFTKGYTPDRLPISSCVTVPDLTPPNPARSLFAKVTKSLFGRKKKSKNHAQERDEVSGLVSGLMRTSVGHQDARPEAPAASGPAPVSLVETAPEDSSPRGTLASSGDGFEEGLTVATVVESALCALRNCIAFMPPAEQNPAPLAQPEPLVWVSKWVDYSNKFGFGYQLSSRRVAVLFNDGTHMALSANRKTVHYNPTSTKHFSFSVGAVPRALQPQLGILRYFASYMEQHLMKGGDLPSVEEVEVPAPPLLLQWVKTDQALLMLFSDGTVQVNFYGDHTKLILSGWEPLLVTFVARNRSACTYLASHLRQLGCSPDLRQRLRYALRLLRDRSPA
# Chain of Serine/threonine-protein kinase PLK1 (P53350 whole entry): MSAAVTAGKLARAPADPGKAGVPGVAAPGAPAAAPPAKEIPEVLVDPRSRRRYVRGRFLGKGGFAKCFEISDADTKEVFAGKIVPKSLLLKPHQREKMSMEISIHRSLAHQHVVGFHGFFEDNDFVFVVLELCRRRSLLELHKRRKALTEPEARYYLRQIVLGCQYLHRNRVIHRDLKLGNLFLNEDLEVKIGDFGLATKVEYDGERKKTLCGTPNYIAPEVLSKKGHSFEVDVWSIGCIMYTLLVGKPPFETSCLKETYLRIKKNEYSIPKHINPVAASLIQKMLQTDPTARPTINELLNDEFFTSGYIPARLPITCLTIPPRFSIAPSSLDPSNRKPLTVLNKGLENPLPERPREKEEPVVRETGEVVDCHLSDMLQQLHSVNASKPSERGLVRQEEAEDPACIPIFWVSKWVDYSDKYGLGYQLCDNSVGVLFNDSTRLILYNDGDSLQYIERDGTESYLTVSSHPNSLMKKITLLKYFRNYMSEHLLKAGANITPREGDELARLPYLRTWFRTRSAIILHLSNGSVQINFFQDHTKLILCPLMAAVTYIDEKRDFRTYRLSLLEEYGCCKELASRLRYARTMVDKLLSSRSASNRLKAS
smiles,measurement,setting,value
COc1cc(N2CCN(C)CC2)ccc1Nc1ncc(C(C)=O)c(NC2CCCC2)n1 [1-[4-(cyclopentylamino)-2-{[2-methoxy-4-(4-methylpiperazin-1-yl)phenyl]amino}pyrimidin-5-yl]ethan-1-one],IC50,[1],2580 nM
same,IC50,[2],145 nM
same,IC50,[3],> 10000 nM
"CC[C@@H]1C(=O)N(C)c2cnc(Nc3ccc(C(=O)NC4CCN(C)CC4)cc3)nc2N1C1CCCC1 [4-{[(7R)-8-cyclopentyl-7-ethyl-5-methyl-6-oxo-5,6,7,8-tetrahydropteridin-2-yl]amino}-N-(1-methylpiperidin-4-yl)benzamide]",IC50,[1],6.7 nM
same,IC50,[2],5 nM
same,IC50,[3],11.5 nM
CC(=O)c1cnc(Nc2ccc(N3CCN(C)CC3)cc2)nc1NC1CCCC1 [1-[4-(cyclopentylamino)-2-{[4-(4-methylpiperazin-1-yl)phenyl]amino}pyrimidin-5-yl]ethan-1-one],IC50,[1],3490 nM
same,IC50,[2],345 nM
same,IC50,[3],367 nM
